Measured values taken from ChEMBL document CHEMBL1201862, “PubChem BioAssay data set” (2004).
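96-well plates; 48 h exposure; 5 concentrations. Endpoints by linear interpolation between flanking doses. Not reached: highest tested concentration assigned. Here, GI50 denotes the concentration required for 50% inhibition of growth.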 Activity calls are given as the source filed them. No stated cut-off is given here; in the data, active = GI50 up to about 1.1 µM and inactive = higher. Peptide text beside a SMILES is read from it. * marks the point of attachment. Cbz = O=C(OCc1ccccc1)*; Boc = CC(C)(C)OC(=O)*; OBn = c1ccc(CO*)cc1

Tests used:
Experiment in all cases: NCI anticancer screen, dose series, 48 h
[1] = tested on: NCI-H522
[2] = tested on: MCF7
[3] = tested on: SF-268
[4] = tested on: TK-10
[5] = tested on: SK-OV-3
[6] = tested on: RPMI-8226
[7] = tested on: HCT-116
[8] = tested on: SK-MEL-5
[9] = tested on: NCI/ADR-RES
[10] = tested on: UACC-257
[11] = tested on: A498
[12] = tested on: A549
[13] = tested on: LOX IMVI
[14] = tested on: T47D
[15] = tested on: HOP-92
[16] = tested on: DU-145
[17] = tested on: HL-60
[18] = tested on: Malme-3M
[19] = tested on: NCI-H226

For `CC1(C)N=C(N)N=C(N)N1c1cccc(C(=O)Nc2ccc(S(=O)(=O)F)cc2)c1`, the GI50 [1] was > 100 µM (inactive), the GI50 [2] was > 100 µM (inactive) and the GI50 [3] was > 100 µM (inactive). For the same compound, the GI50 [4] was > 100 µM (inactive), the GI50 [5] was > 100 µM (inactive) and the GI50 [6] was > 100 µM (inactive). The GI50 [7] was > 100 µM (inactive), the GI50 [8] was > 100 µM (inactive) and the GI50 [9] was > 100 µM (inactive). For the same compound, the GI50 [10] was > 100 µM (inactive), the GI50 [11] was > 100 µM (inactive) and the GI50 [12] was > 100 µM (inactive). For the same compound, the GI50 [13] was > 100 µM (inactive), the GI50 [14] was > 100 µM (inactive) and the GI50 [15] was > 100 µM (inactive). The GI50 [16] was > 100 µM (inactive), the GI50 [17] was > 100 µM (inactive) and the GI50 [18] was > 100 µM (inactive). The GI50 [19] was > 100 µM (inactive).
In the case of `CSc1c(C#N)c(O)nc(N)c1C(=O)Nc1ccc(Cl)cc1`, the GI50 [1] is reported as 14.1 µM (inactive), the GI50 [2] is reported as 8.63 µM (inactive) and the GI50 [3] is reported as 19.5 µM (inactive). The GI50 [4] was 29.3 µM (inactive), the GI50 [5] was 23.3 µM (inactive) and the GI50 [6] was 11.2 µM (inactive). For the same compound, the GI50 [7] was 5.45 µM (inactive), the GI50 [8] was 10.4 µM (inactive) and the GI50 [9] was 17.4 µM (inactive). For the same compound, the GI50 [10] was 6.78 µM (inactive), the GI50 [11] was 16.6 µM (inactive) and the GI50 [12] was 13.4 µM (inactive). For the same compound, the GI50 [13] was 1.74 µM (inactive), the GI50 [14] was 8.38 µM (inactive) and the GI50 [15] was 21.7 µM (inactive). For the same compound, the GI50 [16] was 17.5 µM (inactive), the GI50 [17] was 13.2 µM (inactive) and the GI50 [18] was 26.5 µM (inactive). The GI50 [19] was 28 µM (inactive).
For `CC1(C)CCC2=C(O1)/C(=N\Nc1ccc(S(N)(=O)=O)cc1)c1ccccc1C2=O`, the GI50 [1] was 12.1 µM (inactive), the GI50 [2] was 13.5 µM (inactive) and the GI50 [3] was 11 µM (inactive). For the same compound, the GI50 [4] was 14.5 µM (inactive), the GI50 [5] was 4.15 µM (inactive) and the GI50 [6] was 27.6 µM (inactive). For the same compound, the GI50 [7] was 11.6 µM (inactive), the GI50 [8] was 1.81 µM (inactive) and the GI50 [9] was 20.2 µM (inactive). The GI50 [10] was 9.55 µM (inactive), the GI50 [11] was 2.37 µM (inactive) and the GI50 [12] was 14.6 µM (inactive). For the same compound, the GI50 [13] was 4.41 µM (inactive), the GI50 [14] was 15.6 µM (inactive) and the GI50 [15] was 12.4 µM (inactive). For the same compound, the GI50 [16] was 12.5 µM (inactive), the GI50 [17] was 15.1 µM (inactive) and the GI50 [18] was 3.3 µM (inactive). The GI50 [19] was 4.99 µM (inactive).
`Nc1c(F)c(F)c2c(c1F)N(CCCCCl)c1ccccc1S2` was tested, and the GI50 [1] was > 100 µM (inactive), the GI50 [2] was > 100 µM (inactive) and the GI50 [3] was > 100 µM (inactive). For the same compound, the GI50 [4] was > 100 µM (inactive), the GI50 [5] was > 100 µM (inactive) and the GI50 [6] was > 100 µM (inactive). For the same compound, the GI50 [7] was > 100 µM (inactive), the GI50 [8] was > 100 µM (inactive) and the GI50 [9] was > 100 µM (inactive). For the same compound, the GI50 [10] was > 100 µM (inactive), the GI50 [11] was > 100 µM (inactive) and the GI50 [12] was > 100 µM (inactive). The GI50 [13] was > 100 µM (inactive), the GI50 [14] was > 100 µM (inactive) and the GI50 [15] was > 100 µM (inactive). The GI50 [16] was > 100 µM (inactive), the GI50 [17] was > 100 µM (inactive) and the GI50 [18] was > 100 µM (inactive). For the same compound, the GI50 [19] was > 100 µM (inactive).
In the case of `C=CCN1CCC(OC(=O)C(O)(/C=C\CC)C2CCCC2)CC1` (stereo unspecified), the GI50 [1] is reported as > 100 µM (inactive), the GI50 [2] is reported as > 100 µM (inactive) and the GI50 [3] is reported as > 100 µM (inactive). The GI50 [4] was > 100 µM (inactive), the GI50 [5] was > 100 µM (inactive) and the GI50 [6] was > 100 µM (inactive). For the same compound, the GI50 [7] was > 100 µM (inactive), the GI50 [8] was > 100 µM (inactive) and the GI50 [9] was > 100 µM (inactive). For the same compound, the GI50 [10] was 0.525 µM (active), the GI50 [11] was > 100 µM (inactive) and the GI50 [12] was > 100 µM (inactive). The GI50 [13] was > 100 µM (inactive), the GI50 [14] was > 100 µM (inactive) and the GI50 [15] was 38.2 µM (inactive). The GI50 [16] was > 100 µM (inactive), the GI50 [17] was > 100 µM (inactive) and the GI50 [18] was > 100 µM (inactive). The GI50 [19] was > 100 µM (inactive).
With `CO/C(N)=C(C#N)/N=C/c1ccsc1` the GI50 [1] was 23.9 µM (inactive), the GI50 [2] was 32.5 µM (inactive) and the GI50 [3] was 44.7 µM (inactive). For the same compound, the GI50 [4] was > 100 µM (inactive), the GI50 [5] was > 100 µM (inactive) and the GI50 [7] was 40 µM (inactive). The GI50 [8] was 28.2 µM (inactive), the GI50 [9] was > 100 µM (inactive) and the GI50 [10] was 41.9 µM (inactive). The GI50 [11] was > 100 µM (inactive), the GI50 [12] was > 100 µM (inactive) and the GI50 [13] was 18.6 µM (inactive). For the same compound, the GI50 [14] was 68.4 µM (inactive), the GI50 [15] was 34.1 µM (inactive) and the GI50 [16] was 42.4 µM (inactive). The GI50 [17] was 13.1 µM (inactive), the GI50 [18] was 40.6 µM (inactive) and the GI50 [19] was > 100 µM (inactive).
For `COC(=O)C(CCCCNC(=O)OCc1ccccc1)NC(=O)C(CCC(=O)OCc1ccccc1)NC(=O)OC(C)(C)C` (stereo unspecified) (Boc-Glu(OBn)-Lys(Cbz)-OMe; configuration not given here), the GI50 [1] was 56.9 µM (inactive), the GI50 [2] was > 100 µM (inactive) and the GI50 [3] was > 100 µM (inactive). The GI50 [4] was > 100 µM (inactive), the GI50 [5] was 46.6 µM (inactive) and the GI50 [6] was > 100 µM (inactive). For the same compound, the GI50 [7] was > 100 µM (inactive), the GI50 [8] was > 100 µM (inactive) and the GI50 [9] was > 100 µM (inactive). For the same compound, the GI50 [11] was 16.1 µM (inactive), the GI50 [12] was > 100 µM (inactive) and the GI50 [13] was > 100 µM (inactive). The GI50 [14] was > 100 µM (inactive), the GI50 [15] was > 100 µM (inactive) and the GI50 [16] was > 100 µM (inactive). For the same compound, the GI50 [17] was > 100 µM (inactive), the GI50 [18] was 54.3 µM (inactive) and the GI50 [19] was > 100 µM (inactive).
